Experiments:
antigen = assay: Antigen binding of yeast-displayed synthetic antibody fragments substituted with ncAAs; conditions: ncAA incorporated into yeast-displayed synthetic antibody fragments
Procedure: (§1) Experiments were undertaken to expand the tools available for genetically encoding crosslinkable ncAAs in proteins produced in yeast. As described in the above examples, a large number of aminoacyl-tRNA synthetase (aaRS) variants were discovered that support translation with a broad set of ncAAs. Here, several of these aaRSs were evaluated alongside previously described variants to evaluate their support of protein translation with the ncAAs O-(2-bromoethyl)tyrosine (Obey), 4-benzoyl-1-phenylalanine (Bpa), or N^6-((2-(3-methyl-3H-diazirin-3-yl)ethoxy)carbonyl)-L-lysine (Photo-Lysine, Phk) (FIG. 12A). Although none of these ncAAs were used in any of the screening efforts described in the above Examples. several variants from the screens were nevertheless identified that supported translation at moderate to high efficiencies with Obey and Phk. […] The potential utility of these spontaneously crosslinkable and photocrosslinkable ncAAs was also investigated. […] The display and binding activities of these peptides were confirmed. […] For the cases of Phk and Bpa, photocrosslinkability on the yeast surface was investigated utilizing ncAA-substituted synthetic antibody clones and alongside AzF-substituted clones known to undergo UV-mediated crosslinking.

streptavidin = streptavidin (Streptomyces avidinii, UniProt P22629); assay: Display and binding of ncAA-substituted anti-streptavidin peptides on the yeast surface
Procedure: as §1

[1] = system: ncAA-substituted synthetic antibody clones; assay: UV-mediated photocrosslinking of ncAA-substituted synthetic antibody clones on the yeast surface; conditions: identical sets of crosslinking conditions
Procedure: as §1

antigen binding of ncAA-substituted constructs (in words) (antigen) | Structure (SMILES) | display and binding activities of ncAA-substituted peptides (in words) (streptavidin) | crosslinking on the yeast surface (in words) [1]
retained antigen binding | N[C@@H](Cc1ccc(C(=O)c2ccccc2)cc1)C(=O)O [Bpa, 4-benzoyl-1-phenylalanine] |  | clear evidence
 | [N-]=[N+]=Nc1ccc(C[C@H](N)C(=O)O)cc1 [AzF, p-azido-L-phenylalanine] |  | clear evidence
retained antigen binding | CC1(CCOC(=O)NCCCC[C@H](N)C(=O)O)N=N1 [Phk, N^6-((2-(3-methyl-3H-diazirin-3-yl)ethoxy)carbonyl)-L-lysine] |  | did not appear to undergo detectable crosslinking
 | C#CCOc1ccc(C[C@H](N)C(=O)O)cc1 [OPG, p-propargyloxy-L-phenylalanine] | confirmed | 

Structure (SMILES) | antigen binding of ncAA-substituted constructs (in words) (antigen) | display and binding activities of ncAA-substituted peptides (in words) (streptavidin) | crosslinking on the yeast surface (in words) [1]
N[C@@H](Cc1ccc(OCCBr)cc1)C(=O)O [Obey, O-(2-Bromoethyl)-L-tyrosine] | retained antigen binding | confirmed | 
